Laboratory results: patent publication EP0076669A1, “Novel 3-phenyl-1-indanamines, pharmaceutical compositions and methods of preparation” (KEFALAS A/S, priority 1981, dated 1983)
Counter-ions that a name gives are not always drawn. Like-named read-outs stand apart in the source and are kept apart here.

Tests used:
[1] = tested on: tetrabenazine induced ptosis; assay: Tetrabenazine ptosis antagonism; assay type: in vivo; settings: Mus musculus, ip, 0.5 h; i.p., mice; tetrabenazine 40 mg/kg i.p. 30 min after test substance
Procedure: For insoluble substances the doses 0, 1/8, 1/32 and 1/128 of "i.^p. LD50" are used. 3 mice are used for each dose level. Thirty minutes after administration of test substance, tetrabenazine, 40 mg/kg, is injected i.p. Ptosis is evaluated 30 minutes after administration of tetrabenazine, the following rating scale being used: 0 = normal eyes, 1=1/4 closed eyes, 2 = 1/2 closed eyes, 3 = 3/4 closed eyes and 4 = completely closed eyes. Ptosis is evaluated 30 seconds after tilting the cage 3 times. The tilting is carried out in such a way that the animals slide along the floor of the cage.
The results are recorded as % inhibition of ptotic score calculated on the basis of the score of the control group. If ptotic score for the control group is < 10 the test is rejected and another is performed. The registration can also be done as an on line procedure.

potentiation of 5-HTP = assay: 5-HTP potentiation (5-HTP syndrome); assay type: in vivo; settings: Mus musculus, ip, 0.5 h; i.p., mice; 5-HTP 100 mg/kg i.v. 30 min after test substance; read-out: 5-HTP potentation,ED50
Procedure: The test substance is given i.p. or p.o. in the doses 10, 10, 2.5, 0.63 and 0 mg/kg. Three mice are used for each dose level. One of the groups on the highest dose is used as control of the compounds own effect. […] Thirty minutes after administration of test substance, 5-HTP, 100 mg/kg i.v. is given (injection time 5-10 sec.). After this 5-HTP dose the animals remain unaffected. If the animals have been pretreated with a substance, which inhibits the re-uptake of 5-HT, a 5-HTP syndrome will occur. This is characterized by the following symptoms: 1) excitation, 2) tremor, and 3) abduction of the hind limbs.
After the administration of 5-HTP the animals are observed for 15 minutes and each animal is given one point for each symptom present. Thus, the maximal score for a group consisting of 3 mice is 9.
The results are stated as fractions: 0/9, 1/9, 2/9 ..... 8/9, 9/9, where 0, 1, 2 ..... 8, 9 are the number of points per group after the dose in question.

[2] = molecular target: T1, ^3H-DA uptake in striatal synaptosomes (Rattus norvegicus, UniProt P23977); assay: biochemical; assay type: biochemical, Rats
T1 construct: the two corpura striata are dissected out and gently homogenized; from tissue; host or cells: rat corpus striatum, synaptosomal P2 fraction
T1 sequence (P23977 whole entry): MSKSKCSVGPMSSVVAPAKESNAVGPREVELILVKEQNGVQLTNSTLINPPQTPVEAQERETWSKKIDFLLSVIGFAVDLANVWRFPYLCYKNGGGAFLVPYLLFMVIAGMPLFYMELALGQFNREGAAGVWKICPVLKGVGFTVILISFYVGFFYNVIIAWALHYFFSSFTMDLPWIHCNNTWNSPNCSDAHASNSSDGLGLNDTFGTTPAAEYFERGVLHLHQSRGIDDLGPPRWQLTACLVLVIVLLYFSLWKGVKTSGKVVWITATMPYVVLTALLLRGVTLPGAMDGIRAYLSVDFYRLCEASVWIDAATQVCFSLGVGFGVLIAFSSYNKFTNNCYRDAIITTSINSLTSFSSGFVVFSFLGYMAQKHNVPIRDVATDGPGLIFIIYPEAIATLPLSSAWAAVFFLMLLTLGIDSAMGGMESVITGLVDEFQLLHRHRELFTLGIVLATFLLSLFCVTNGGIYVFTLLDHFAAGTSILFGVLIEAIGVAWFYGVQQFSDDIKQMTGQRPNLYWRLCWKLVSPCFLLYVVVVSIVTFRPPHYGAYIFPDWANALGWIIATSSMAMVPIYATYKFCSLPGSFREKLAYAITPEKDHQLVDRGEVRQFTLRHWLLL
Procedure: ^3H-DA uptake in striatal synaptosomes in vitro.
(§1) 0.32 M sucrose containing 1 mM Nialamide
Krebs-Ringer-phosphate buffer, pH 7.4
3,4-dihydroxyphenylethylamine [ethyl-1-^3H(N)] = ^3H-DA, spc. act. app. 15 Ci/mmol, New England Nuclear
(§2) Thomas Tissue Grinder, clearance 0.004-0.006 inch.
Rats are killed by a blow to their head, exsanguinated and their brains removed. The brain is placed on a precooled glassplate, and the two corpura striata are dissected out and gently homogenized in 40 volumes of ice cold 0.32 M sucrose containing 1 mM of nialamide using a hand homogenizer with teflon pestle. The P2-fraction (synaptosomal fraction) is obtained by centrifugation (600 g, 10 min., 25000 g, 55 min. 4 °C) and suspended in 40 volumes of a modified Krebs-Ringer-phosphate buffer, pH 7.4. To 200µl of the synaptosomal fraction on ice are added 3700 µl modified Krebs-Ringer-phosphate buffer - containing test compounds. After a preincubation at 37°C for 5 min. […] The incubation is terminated by filtering the samples under vacuum through Millipore filters with a wash of 5 ml buffer containing 10 µM of unlabelled DA. After solubilizing the filters in 1 ml of cellosolve the radioactivity is determined by liquid scintillation counting after the addition of 10 ml of Insta-Gel. The unspecific binding of ^3H-DA is determined by incubating control samples on ice instead of at 37 °C.
All experiments are performed in ttriplicate.
The mean of all control samples and ice samples are calculated.

[3] = molecular target: T2, ^3H-5-HT uptake in synaptosomes (Rattus norvegicus, UniProt P31652); assay: Inhibition of 3H-5-HT uptake in synaptosomes in vitro; assay type: biochemical, Rats; settings: rat brain synaptosomes, 3H-5-HT 10 nM; read-out: Uptake Inhibition IC50 5-HT
T2 construct: Rest of the brain is gently homogenized (glass teflon homogenizer); from tissue; host or cells: rat brain without cerebellum, pons and medulla oblongata, synaptosomal P2 fraction
T2 sequence (P31652 whole entry): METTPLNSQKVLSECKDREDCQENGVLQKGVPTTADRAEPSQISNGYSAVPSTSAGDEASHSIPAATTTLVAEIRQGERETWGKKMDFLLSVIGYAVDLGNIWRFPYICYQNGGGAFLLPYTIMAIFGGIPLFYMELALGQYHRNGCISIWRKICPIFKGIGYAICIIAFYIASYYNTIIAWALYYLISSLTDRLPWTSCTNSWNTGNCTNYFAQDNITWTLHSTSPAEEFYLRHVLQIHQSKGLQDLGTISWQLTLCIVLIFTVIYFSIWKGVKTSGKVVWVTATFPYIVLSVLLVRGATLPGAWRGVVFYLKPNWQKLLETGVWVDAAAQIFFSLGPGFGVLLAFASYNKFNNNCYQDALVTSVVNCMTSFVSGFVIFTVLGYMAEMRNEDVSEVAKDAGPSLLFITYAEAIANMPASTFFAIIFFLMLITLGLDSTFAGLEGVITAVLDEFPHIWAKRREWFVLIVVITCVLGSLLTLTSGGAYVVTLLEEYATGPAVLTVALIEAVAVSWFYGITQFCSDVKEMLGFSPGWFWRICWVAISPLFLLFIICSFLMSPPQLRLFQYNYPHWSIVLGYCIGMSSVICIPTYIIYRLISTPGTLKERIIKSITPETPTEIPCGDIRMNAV
Procedure: Inhibition of ^3H-5-HT uptake in synaptosomes in vitro.
as §1
Krebs-Ringer-Phosphate buffer, pH 7.4
Millipore filters (HAWPO 2500, 0.45 µ)
5-hydroxy [G-^3H] tryptamine creatinine sulphate = ^3H-5-HT, spc. act. app. 10 Ci/mmol, The Radiochemical Centre, Amersham.
as §2
Rats are killed by a blow on the head and exsanguinated. The brain is quickly removed, rinsed for blood and placed on a cold plate. The cerebellum, pons and medulla oblongata are removed. Rest of the brain is gently homogenized (glass teflon homogenizer) in 40 volumes of ice cold 0.32 M of sucrose containing 1 mM of nialamide. The P2 fraction (synaptosomal fraction) is obtained by centrifugation (600 g, 10 min. and 25000 g, 55 min., 4°C) and suspended in 40 volumes of a modified Krebs-Ringer-Phosphate buffer, pH 7.4.
To 200µl of the synaptosomal suspension on ice are added 3700 µl modified Krebs-Ringer-phosphate buffer, pH 7.4, containing test substances. After preincubation at 37°C for 5 min., 100 µl of ^3H-5-HT (final concentration in the samples = 10 nM) are added and the samples are incubated for 10 min. at 37 °C. The incubation is terminated by filtering the samples under vacuum through Millipore filters with a wash of 5 ml buffer containing 10 µM of unlabelled 5-HT. After solubilizing the filters in I ml of cellosolve, 10 ml of Instagel are added, and the radioactivity is determined by liquid and scintillation counting. The unspecific binding and passive transport of ^3H-5-HT is determined by incubating control samples on ice instead of at 37°C. All experiments are performed in triplicate. The mean of all control samples are calculated.
The IC50- values are determined as the concentrations, at which the uptake are 50 per cent of the uptake in control sample -uptake in ice samples.

[4] = rat striatal synaptosomes, 3H-DA 12.5 nM, read-out: Uptake Inhibition IC50 DA
[5] = read-out: Uptake Inhibition IC50 DA

| SMILES | ED50 [1] [µmol/kg] | ED50 (potentiation of 5-HTP) [µmol/kg] | IC50 [2, 4] [nM] | IC50 [3] [nM] | IC50 [2] [nM] | IC50 [2, 5] [nM] |
| --- | --- | --- | --- | --- | --- | --- |
| Cc1ccc2c(c1)[C@H](N(C)C)C[C@H]2c1ccc(F)cc1 (relative stereo) [Lu 18-125-c] | 41 | 44 | 100 | 9.8 |  |  |
| CCN(CC)[C@@H]1C[C@@H](c2ccc(F)cc2)c2ccc(F)cc21 (relative stereo) [Lu 18-149-c] | 52 |  | 68 | 140 |  |  |
| CCN(CC)[C@@H]1C[C@@H](c2ccc(F)cc2)c2ccc(C)cc21 (relative stereo) [Lu 18-200-c] | 63 |  | 210 |  |  |  |
| CSc1ccc2c(c1)[C@H](N(C)C)C[C@H]2c1ccc(F)cc1 (relative stereo) [Lu 19-016-c] | 35 | 39 | 170 | 4.5 |  |  |
| CN(C)[C@@H]1C[C@@H](c2ccc(N)cc2)c2ccc(F)cc21 (relative stereo) [Lu 19-021] | 9 | 15 | 190 | 330 |  |  |
| CN(C)[C@@H]1C[C@H](c2ccc(Cl)c(Cl)c2)c2ccc(F)cc21 (relative stereo) [Lu 19-144-c] | > 111 | 29 |  |  |  |  |
| CN[C@@H]1C[C@@H](c2ccc(Cl)c(Cl)c2)c2ccc(OC)cc21 (relative stereo) [Lu 20-015-o] | 7 | 14 |  |  |  |  |
| CN[C@@H]1C[C@H](c2ccc(Cl)c(Cl)c2)c2ccc(OC)cc21 (relative stereo) [Lu 20-016-o] | 14 | 3 |  |  |  |  |
| CN[C@@H]1C[C@H](c2ccc(Cl)c(Cl)c2)c2ccc(O)cc21 (relative stereo) [Lu 20-030] | 15 | 59 |  |  |  |  |
| CN(C)[C@@H]1C[C@@H](c2ccc(Cl)c(Cl)c2)c2ccc(O)cc21 (relative stereo) [Lu 20-031-b, trans N,N-dimethyl-3-(3,4-dichlorophenyl)-6-hydroxy-1-indanamine, hydrobromide] | 97 | 18 |  |  |  |  |
| COc1ccc2c(c1)[C@H](N(C)C)C[C@H]2c1ccc(Cl)c(Cl)c1 (relative stereo) [Lu 20-049-o] | 5.9 | 37 |  |  |  |  |
| CN(C)CCC=C1c2ccccc2CCc2ccccc21 [Amitrip-tyline, amitriptyline, reference compound] | 7 |  |  |  | 5400 |  |
| CN(C)CCCC1(c2ccc(F)cc2)OCc2cc(C#N)ccc21 (stereo not shown) [Citalo-pram, reference compound] | 20 | 3.3 |  |  |  |  |
| CNC1CC(c2ccc(F)cc2)c2ccc(F)cc21 (stereo not shown) [Lu 13-164-o] | 22 | 57 |  |  |  |  |
| Cc1ccc2c(c1)C(N(C)C)CC2c1ccc(F)cc1 (stereo not shown) [Lu 18-119] | 45 | > 37 | 71 | 1.4 |  |  |
| CN(C)C1CC(c2ccc(Cl)c(Cl)c2)c2ccccc21 (stereo not shown) [Lu 18-122-c] | 14 | 10 | 27 | 0.37 |  |  |
| CN(C)C1CC(c2ccc(Cl)cc2Cl)c2ccccc21 (stereo not shown) [Lu 18-137-c] | 23 | 19 | 860 | 0.03 |  |  |
| CN(C)C1CC(c2ccc(F)cc2)c2ccc(F)cc21 (stereo not shown) [Lu 18-147] | > 147 | 21 | 440 | 1.2 |  |  |

| SMILES | ED50 [1] [µmol/kg] | ED50 (potentiation of 5-HTP) [µmol/kg] | IC50 [2, 4] [nM] | IC50 [3] [nM] | IC50 [2] [nM] | IC50 [2, 5] [nM] |
| --- | --- | --- | --- | --- | --- | --- |
| CCN(CC)C1CC(c2ccc(F)cc2)c2ccc(F)cc21 (stereo not shown) [Lu 18-148-c] | > 118 |  | 1600 | 440 |  |  |
| CN(C)C1CC(c2ccc(F)cc2)c2ccc(C(F)(F)F)cc21 (stereo not shown) [Lu 18-150-c] | > 111 | 101 | 340 | 4.3 |  |  |
| CCN(CC)C1CC(c2ccc(Cl)c(Cl)c2)c2ccccc21 (stereo not shown) [Lu 18-188-c] | > 108 |  |  | 13 |  | 120 |
| CN(C)C1CC(c2ccc(F)cc2)c2ccccc21 (stereo not shown) [Lu 19-008-c] | > 137 | 25 | 250 |  |  |  |
| CSc1ccc2c(c1)C(N(C)C)CC2c1ccc(F)cc1 (stereo not shown) [Lu 19-017-c] | 27 | 23 | 150 | < 1 |  |  |
| CN(C)C1CC(c2ccc(N)cc2)c2ccc(F)cc21 (stereo not shown) [Lu 19-022-c] | 19 | 14 | 170 |  |  |  |
| CN(C)C1CC(c2ccccc2)c2ccccc21 (stereo not shown) [Lu 19-025-c, reference compound] | > 143 | > 36 |  | 9.5 |  | 340 |
| NC1CC(c2ccc(Cl)c(Cl)c2)c2ccccc21 (stereo not shown) [Lu 19-030-o] | 16 | > 27 | 7.4 | 15 |  |  |
| CCNC1CC(c2ccc(Cl)c(Cl)c2)c2ccccc21 (stereo not shown) [Lu 19-041-c] | > 117 | 24 | 62 |  |  |  |
| Clc1ccc(C2CC(NCc3ccccc3)c3ccccc32)cc1Cl (stereo not shown) [Lu 19-072-c] | > 99 | > 99 |  |  |  |  |
| OCCNC1CC(c2ccc(Cl)c(Cl)c2)c2ccccc21 (stereo not shown) [Lu 19-073-c] | > 111 | > 111 |  |  |  |  |
| Clc1ccc(C2CC(NCCc3ccccc3)c3ccccc32)cc1Cl (stereo not shown) [Lu 19-079-o] | > 85 | > 85 |  |  |  |  |
| CNC1CC(c2ccc(F)c(Cl)c2)c2ccccc21 (stereo not shown) [Lu 19-086-c] | 32 | 30 |  |  |  |  |
| CNC1CC(c2ccc(F)cc2)c2ccc(C)cc21 (stereo not shown) [Lu 19-091-c] | > 137 | 55 |  |  |  |  |
| CN(C)C1CC(c2ccc(F)c(F)c2)c2ccccc21 (stereo not shown) [Lu 19-096-c] | 13 | 42 |  |  |  |  |
| CN(C)C1CC(O)(c2ccc(F)c(Cl)c2)c2ccccc21 (stereo not shown) [Lu 19-114, N,N-dimethyl-3-(3-chloro-4-fluorophenyl)-3-hydroxy-1-indanamine] | 14 | 26 |  |  |  |  |
| COc1ccc2c(c1)C(N(C)C)CC2c1ccc(Cl)c(Cl)c1 (stereo not shown) [Lu 20-050] | 119 | 26 |  |  |  |  |
| CN1Cc2c(N)cccc2C(c2ccccc2)C1 (stereo not shown) [Nomi-phensine, nomiphensine, reference compound] | 4.3 | > 56 |  |  |  |  |
